Measurements: US9493506B2 (Enanta Pharmaceuticals, Inc., priority 2010, dated 2016)

How the values were obtained:
Format in all cases: cell-based, hepatitis C virus (genotype 1a-H77)
[1] = system: HCV replicon with a R155K mutation in a 1a-H77 background; test: transient replicon assay, R155K mutation in 1a-H77 background; details: Hepatitis C virus, read-out: EC50 in a transient replicon assay with a R155K mutation in a 1a-H77 background
Experimental: (§1) Replicon cell lines can be maintained in Dulbecco's modified Eagles medium (DMEM) containing 100 IU/ml penicillin, […] streptomycin (Invitrogen), […] G418 (Invitrogen) and 10% (v/v) fetal bovine serum (FBS). Replicon-containing cells can be seeded into 96 well plates at a density of 5000 cells per well in 100 μl DMEM containing 5% FBS. The next day, the compound can be initially diluted in dimethyl sulfoxide (DMSO) to generate a 200× stock of the inhibitor in a series of 8 half-log dilutions. The dilution series can then be diluted 100-fold in the medium containing 5% FBS. One hundred microliters of medium with the inhibitor can be added to each well of the overnight cell culture plate already containing 100 μl of DMEM with 5% FBS. In assays where the protein binding effect on inhibitor potency is assessed, the medium from the overnight cell culture plates can be replaced with 200 μl DMEM containing 40% human plasma (Innovative Research) plus 5% FBS as well as compound. The cells can be grown for 4 days in tissue culture incubators. The inhibitory effects of compounds against the replicons can be determined by measuring either the level of luciferase or HCV RNA. The luciferase assay can be conducted using a Luciferase Assay System kit (Promega) following the manufacturer's instructions. Briefly, the cell culture medium is removed and wells are washed with 200 μl of phosphate-buffered saline. To each well Passive Lysis buffer (Promega, Wis.) is added and the plates are incubated for 30 min with rocking to lyse the cells. Luciferin solution (50 μl, Promega) is added, and luciferase activity is measured with a Victor II luminometer (Perkin-Elmer). To determine HCV RNA levels, RNA extractions can be performed using the CellsDirect kit (Invitrogen), and the HCV RNA copy number can be measured using the SuperScript III Platinum One-Step qRT-PCR system (Invitrogen) and primers specific to the HCV 5′ nontranslated region. Cytotoxicity can be determined by the 3-[4,5-dimethylhiazol-2-yl]-2,5-diphenyltetrazolium bromide (MTT) colorimetric assay as follows. Replicon cells is plated in 96-well plates (4000 cells per well), the next day compound dilutions are added as in the activity assay, and the cells are grown in the presence of the inhibitors for 4 days. The MTT solution is diluted in DMEM containing 5% FBS and 60 μl of the solution is added to the cells. After 4 hrs, the cells are solubilized by the addition of 30 […]μl SDS (20% in 0.02 N HCl). The plates are incubated overnight and the optical density can be measured at 570 nm. To determine compounds' EC50 and TD50, luciferase, RNA inhibition and MTT data can be analyzed using the GraphPad Prism 4 software (equation: sigmoidal dose-response—variable slope).
(§2) The 1a-H77 replicon for transient assays further differs from the replicon in the stable cell line in that it contains NS2 through NS5B in the second cistron. The 1b-N strain replicon contains NS3 through NS5B in the second cistron, with adaptive mutations E1202G in NS3 and S2204I in NS5A. Mutagenesis can be performed using the Stratagene QuikChange XL II site-directed mutagenesis kit. Mutants' sequences can be confirmed, plasmids can be linearized with Xba I restriction enzyme and used as template for in vitro transcription reactions to make mutant replicon RNA for transient transfections. In vitro transcription can be performed with the T7 Megascript kit (Ambion).
(§3) Transient replicon transfections can be performed essentially as described by Mo et al. (Antimicrob Agents Chemother (2005) 49(10):4305-4314) with slight modifications. Fifteen micrograms of template RNA can be used to electroporate 3×10^6 cells in a 200 μl volume in a 0.2 cm cuvette. The cells used for transient transfections can be Huh7 cells obtained by curing replicon-containing cells with IFN (Mo et al., supra). Electroporation can be done with a Gene Pulser II (Bio-Rad, CA) at 480V and 25 μF, using two manual pulses. […]

[2] = system: HCV replicon with a D168E mutation in a 1a-H77 background; test: transient replicon assay, D168E mutation in 1a-H77 background; details: Hepatitis C virus, read-out: EC50 in a transient replicon assay with a D168E mutation in a 1a-H77 background
Experimental: as §1, §2, §3

[3] = system: HCV replicon with a D168V mutation in a 1a-H77 background; test: transient replicon assay, D168V mutation in 1a-H77 background; details: Hepatitis C virus, read-out: EC50 in a transient replicon assay with a D168V mutation in a 1a-H77 background
Experimental: as §1, §2, §3

| SMILES | EC50 [1] | EC50 [2] | EC50 [3] |
| --- | --- | --- | --- |
| Cc1cnc(C(=O)N[C@H]2CCCCC/C=C\[C@@H]3C[C@@]3(C(=O)NS(=O)(=O)C3CC3)NC(=O)[C@@H]3C[C@@H](Oc4nc5ccccc5nc4C(F)(F)F)CN3C2=O)cn1 [Example 11, (2R,6S,13aS,14aR,16aS,Z)—N-(cyclopropylsulfonyl)-2-(3-(trifluoromethyl)quinoxalin-2-yloxy)-6-(5-methylpyrazine-2-carboxamido)-5,16-dioxo-1,2,3,5,6,7,8,9,10,11,13a,14,14a,15,16,16a-hexadecahydrocyclopropa[e]pyrrolo[1,2-a][1,4]diazacyclopentadecine-14a-carboxamide] | 10 to 25 nM | > 100 nM | 50 to 250 nM |
| Cn1ccc(C(=O)N[C@H]2CCCCC/C=C\[C@@H]3C[C@@]3(C(=O)NS(=O)(=O)C3CC3)NC(=O)[C@@H]3C[C@@H](Oc4nc5ccccc5nc4C(F)(F)F)CN3C2=O)n1 [Example 12] | 10 to 25 nM | 50 to 100 nM | 250 to 1000 nM |
| Cc1cc(C(=O)N[C@H]2CCCCC/C=C\[C@@H]3C[C@@]3(C(=O)NS(=O)(=O)C3CC3)NC(=O)[C@@H]3C[C@@H](Oc4nc5ccccc5nc4C(F)(F)F)CN3C2=O)[nH]n1 [Example 13] | 10 to 25 nM | > 100 nM | 250 to 1000 nM |
| Cc1ccsc1C(=O)N[C@H]1CCCCC/C=C\[C@@H]2C[C@@]2(C(=O)NS(=O)(=O)C2CC2)NC(=O)[C@@H]2C[C@@H](Oc3nc4ccccc4nc3C(F)(F)F)CN2C1=O [Example 14] | < 1 nM | 3 to 20 nM | 25 to 50 nM |
| Cc1cc(C(=O)N[C@H]2CCCCC/C=C\[C@@H]3C[C@@]3(C(=O)NS(=O)(=O)C3(C)CC3)NC(=O)[C@@H]3C[C@@H](Oc4nc5ccccc5nc4C(F)(F)F)CN3C2=O)no1 [Example 17, 5-methyl-N-((2R,6S,13aS,14aR,16aS,Z)-14a-(1-methylcyclopropylsulfonylcarbamoyl)-5,16-dioxo-2-(3-(trifluoromethyl)quinoxalin-2-yloxy)-1,2,3,5,6,7,8,9,10,11,13a,14,14a,15,16,16a-hexadecahydrocyclopropa[e]pyrrolo[1,2-a][1,4]diazacyclopentadecin-6-yl)isoxazole-3-carboxamide] | < 1 nM | 3 to 20 nM | 25 to 50 nM |
| CC(C)[C@@H](C(=O)N[C@H]1CCCCC/C=C\[C@@H]2C[C@@]2(C(=O)NS(=O)(=O)C2CC2)NC(=O)[C@@H]2C[C@@H](Oc3nc4ccccc4nc3C(F)(F)F)CN2C1=O)N1CCCNC1=O [Example 19, (2R,6S,13aS,14aR,16aS,Z)—N-(cyclopropylsulfonyl)-6-((S)-3-methyl-2-(2-oxotetrahydropyrimidin-1(2H)-yl)butanamido)-5,16-dioxo-2-(3-(trifluoromethyl)quinoxalin-2-yloxy)-1,2,3,5,6,7,8,9,10,11,13a,14,14a,15,16,16a-hexadecahydrocyclopropa[e]pyrrolo[1,2-a][1,4]diazacyclopentadecine-14a-carboxamide] | > 50 nM | > 100 nM | > 1000 nM |
| Cc1nc2ccc(F)cc2nc1O[C@@H]1C[C@H]2C(=O)N[C@]3(C(=O)NS(=O)(=O)C4CC4)C[C@H]3/C=C\CCCCC[C@H](NC(=O)OC(C)(C)C)C(=O)N2C1 [Example 20, tert-butyl (2R,6S,13aS,14aR,16aS,Z)-14a-(cyclopropylsulfonylcarbamoyl)-2-(7-fluoro-3-methylquinoxalin-2-yloxy)-5,16-dioxo-1,2,3,5,6,7,8,9,10,11,13a,14,14a,15,16,16a-hexadecahydrocyclopropa[e]pyrrolo[1,2-a][1,4]diazacyclopentadecin-6-ylcarbamate] | < 1 nM | 3 to 20 nM | 25 to 50 nM |
| Cc1nc2ccc(F)cc2nc1O[C@@H]1C[C@H]2C(=O)N[C@]3(C(=O)NS(=O)(=O)C4CC4)C[C@H]3/C=C\CCCCC[C@H](NC(=O)c3noc(C)c3C)C(=O)N2C1 [Example 21, N-((2R,6S,13aS,14aR,16aS,Z)-14a-(cyclopropylsulfonylcarbamoyl)-2-(7-fluoro-3-methylquinoxalin-2-yloxy)-5,16-dioxo-1,2,3,5,6,7,8,9,10,11,13a,14,14a,15,16,16a-hexadecahydrocyclopropa[e]pyrrolo[1,2-a][1,4]diazacyclopentadecin-6-yl)-4,5-dimethylisoxazole-3-carboxamide] | < 1 nM | < 3 nM | < 25 nM |
| Cc1nc2ccc(F)cc2nc1O[C@@H]1C[C@H]2C(=O)N[C@]3(C(=O)NS(=O)(=O)C4(C)CC4)C[C@H]3/C=C\CCCCC[C@H](NC(=O)c3noc(C)c3C)C(=O)N2C1 [Example 24, N-((2R,6S,13aS,14aR,16aS,Z)-2-(7-fluoro-3-methylquinoxalin-2-yloxy)-14a-(1-methylcyclopropylsulfonylcarbamoyl)-5,16-dioxo-1,2,3,5,6,7,8,9,10,11,13a,14,14a,15,16,16a-hexadecahydrocyclopropa[e]pyrrolo[1,2-a][1,4]diazacyclopentadecin-6-yl)-4,5-dimethylisoxazole-3-carboxamide] | < 1 nM | < 3 nM | < 25 nM |
| Cc1nc2cccc(F)c2nc1O[C@@H]1C[C@H]2C(=O)N[C@]3(C(=O)NS(=O)(=O)C4CC4)C[C@H]3/C=C\CCCCC[C@H](NC(=O)OC(C)(C)C)C(=O)N2C1 [Example 54, tert-butyl (2R,6S,13aS,14aR,16aS,Z)-14a-(cyclopropylsulfonylcarbamoyl)-2-(8-fluoro-3-methylquinoxalin-2-yloxy)-5,16-dioxo-1,2,3,5,6,7,8,9,10,11,13a,14,14a,15,16,16a-hexadecahydrocyclopropa[e]pyrrolo[1,2-a][1,4]diazacyclopentadecin-6-ylcarbamate] | 1 to 10 nM | 20 to 50 nM | 50 to 250 nM |
| Cc1nc2cccc(F)c2nc1O[C@@H]1C[C@H]2C(=O)N[C@]3(C(=O)NS(=O)(=O)C4CC4)C[C@H]3/C=C\CCCCC[C@H](NC(=O)c3ccon3)C(=O)N2C1 [Example 55, N-((2R,6S,13aS,14aR,16aS,Z)-14a-(cyclopropylsulfonylcarbamoyl)-2-(8-fluoro-3-methylquinoxalin-2-yloxy)-5,16-dioxo-1,2,3,5,6,7,8,9,10,11,13a,14,14a,15,16,16a-hexadecahydrocyclopropa[e]pyrrolo[1,2-a][1,4]diazacyclopentadecin-6-yl)isoxazole-3-carboxamide] | 1 to 10 nM | 20 to 50 nM | 50 to 250 nM |
| Cc1nc2cccc(F)c2nc1O[C@@H]1C[C@H]2C(=O)N[C@]3(C(=O)NS(=O)(=O)C4CC4)C[C@H]3/C=C\CCCCC[C@H](NC(=O)c3noc(C)c3C)C(=O)N2C1 [Example 57, N-((2R,6S,13aS,14aR,16aS,Z)-14a-(cyclopropylsulfonylcarbamoyl)-2-(8-fluoro-3-methylquinoxalin-2-yloxy)-5,16-dioxo-1,2,3,5,6,7,8,9,10,11,13a,14,14a,15,16,16a-hexadecahydrocyclopropa[e]pyrrolo[1,2-a][1,4]diazacyclopentadecin-6-yl)-4,5-dimethylisoxazole-3-carboxamide] | < 1 nM | 3 to 20 nM | < 25 nM |
